Source: paper PMC9133015 (Nature Communications, 2022)
Where “and” joins values, the source holds several entries; their conditions need not be identical. Identical values can stand only once.

Tests used:
Experiment in all cases: Kinase inhibitor specificity profiling (Reaction Biology Corporation)
Assay type in all cases: biochemical
Parameters in all cases: % Enzyme Activity (relative to DMSO controls): concentration or dose not given beside the values
[1] = molecular target: T1, panel of 370 protein kinases (Homo sapiens, UniProt P42679); conditions: 2 h, kinase CTK/MATK; read-out: % Enzyme Activity (relative to DMSO controls)
T1 construct: purchased Reaction Biology Corporation (assay service)
T1 sequence (P42679 whole entry): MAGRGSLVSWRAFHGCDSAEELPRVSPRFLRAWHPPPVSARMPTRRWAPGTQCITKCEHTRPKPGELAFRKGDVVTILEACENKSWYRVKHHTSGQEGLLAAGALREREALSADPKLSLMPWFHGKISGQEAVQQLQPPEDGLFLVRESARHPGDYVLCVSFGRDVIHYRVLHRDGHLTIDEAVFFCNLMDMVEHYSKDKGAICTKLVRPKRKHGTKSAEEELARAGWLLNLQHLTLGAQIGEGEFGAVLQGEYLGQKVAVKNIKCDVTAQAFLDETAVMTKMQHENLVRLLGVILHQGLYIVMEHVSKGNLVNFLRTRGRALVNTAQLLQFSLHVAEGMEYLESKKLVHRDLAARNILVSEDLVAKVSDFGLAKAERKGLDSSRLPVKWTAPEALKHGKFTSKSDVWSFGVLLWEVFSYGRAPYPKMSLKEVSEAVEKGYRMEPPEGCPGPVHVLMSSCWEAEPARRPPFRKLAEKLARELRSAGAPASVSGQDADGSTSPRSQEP

[2] = molecular target: T2, panel of 370 protein kinases (Homo sapiens, UniProt P16591); conditions: 2 h, kinase FER; read-out: % Enzyme Activity (relative to DMSO controls)
T2 construct: purchased Reaction Biology Corporation (assay service)

[3] = molecular target: T3, panel of 370 protein kinases (Homo sapiens, UniProt Q32MK0); conditions: 2 h, kinase MYLK3; read-out: % Enzyme Activity (relative to DMSO controls)
T3 construct: purchased Reaction Biology Corporation (assay service)
T3 sequence (Q32MK0 whole entry): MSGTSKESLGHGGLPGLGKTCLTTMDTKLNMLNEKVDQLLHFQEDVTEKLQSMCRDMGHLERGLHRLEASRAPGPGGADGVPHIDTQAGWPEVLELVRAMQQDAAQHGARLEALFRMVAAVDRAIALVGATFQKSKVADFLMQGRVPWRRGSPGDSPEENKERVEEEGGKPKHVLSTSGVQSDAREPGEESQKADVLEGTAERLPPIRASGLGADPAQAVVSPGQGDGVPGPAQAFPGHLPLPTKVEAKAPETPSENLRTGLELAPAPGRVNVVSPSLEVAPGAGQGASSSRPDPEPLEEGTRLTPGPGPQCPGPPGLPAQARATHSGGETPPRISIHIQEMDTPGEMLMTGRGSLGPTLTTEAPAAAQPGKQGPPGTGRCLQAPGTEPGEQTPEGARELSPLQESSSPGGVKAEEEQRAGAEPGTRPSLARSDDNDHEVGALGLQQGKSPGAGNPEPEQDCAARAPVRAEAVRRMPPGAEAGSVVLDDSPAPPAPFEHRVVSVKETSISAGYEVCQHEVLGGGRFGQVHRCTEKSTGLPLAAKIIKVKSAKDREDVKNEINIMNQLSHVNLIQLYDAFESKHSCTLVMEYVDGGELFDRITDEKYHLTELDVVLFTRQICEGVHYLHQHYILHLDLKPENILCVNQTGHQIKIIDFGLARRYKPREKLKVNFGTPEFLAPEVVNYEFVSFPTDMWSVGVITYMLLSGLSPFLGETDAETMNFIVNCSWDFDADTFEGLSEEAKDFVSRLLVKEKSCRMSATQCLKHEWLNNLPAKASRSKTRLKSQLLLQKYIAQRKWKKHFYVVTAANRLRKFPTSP

[4] = molecular target: T4, panel of 370 protein kinases (Homo sapiens, UniProt O75116); conditions: 2 h, kinase ROCK2; read-out: % Enzyme Activity (relative to DMSO controls)
T4 construct: purchased Reaction Biology Corporation (assay service)
T4 sequence (O75116 whole entry): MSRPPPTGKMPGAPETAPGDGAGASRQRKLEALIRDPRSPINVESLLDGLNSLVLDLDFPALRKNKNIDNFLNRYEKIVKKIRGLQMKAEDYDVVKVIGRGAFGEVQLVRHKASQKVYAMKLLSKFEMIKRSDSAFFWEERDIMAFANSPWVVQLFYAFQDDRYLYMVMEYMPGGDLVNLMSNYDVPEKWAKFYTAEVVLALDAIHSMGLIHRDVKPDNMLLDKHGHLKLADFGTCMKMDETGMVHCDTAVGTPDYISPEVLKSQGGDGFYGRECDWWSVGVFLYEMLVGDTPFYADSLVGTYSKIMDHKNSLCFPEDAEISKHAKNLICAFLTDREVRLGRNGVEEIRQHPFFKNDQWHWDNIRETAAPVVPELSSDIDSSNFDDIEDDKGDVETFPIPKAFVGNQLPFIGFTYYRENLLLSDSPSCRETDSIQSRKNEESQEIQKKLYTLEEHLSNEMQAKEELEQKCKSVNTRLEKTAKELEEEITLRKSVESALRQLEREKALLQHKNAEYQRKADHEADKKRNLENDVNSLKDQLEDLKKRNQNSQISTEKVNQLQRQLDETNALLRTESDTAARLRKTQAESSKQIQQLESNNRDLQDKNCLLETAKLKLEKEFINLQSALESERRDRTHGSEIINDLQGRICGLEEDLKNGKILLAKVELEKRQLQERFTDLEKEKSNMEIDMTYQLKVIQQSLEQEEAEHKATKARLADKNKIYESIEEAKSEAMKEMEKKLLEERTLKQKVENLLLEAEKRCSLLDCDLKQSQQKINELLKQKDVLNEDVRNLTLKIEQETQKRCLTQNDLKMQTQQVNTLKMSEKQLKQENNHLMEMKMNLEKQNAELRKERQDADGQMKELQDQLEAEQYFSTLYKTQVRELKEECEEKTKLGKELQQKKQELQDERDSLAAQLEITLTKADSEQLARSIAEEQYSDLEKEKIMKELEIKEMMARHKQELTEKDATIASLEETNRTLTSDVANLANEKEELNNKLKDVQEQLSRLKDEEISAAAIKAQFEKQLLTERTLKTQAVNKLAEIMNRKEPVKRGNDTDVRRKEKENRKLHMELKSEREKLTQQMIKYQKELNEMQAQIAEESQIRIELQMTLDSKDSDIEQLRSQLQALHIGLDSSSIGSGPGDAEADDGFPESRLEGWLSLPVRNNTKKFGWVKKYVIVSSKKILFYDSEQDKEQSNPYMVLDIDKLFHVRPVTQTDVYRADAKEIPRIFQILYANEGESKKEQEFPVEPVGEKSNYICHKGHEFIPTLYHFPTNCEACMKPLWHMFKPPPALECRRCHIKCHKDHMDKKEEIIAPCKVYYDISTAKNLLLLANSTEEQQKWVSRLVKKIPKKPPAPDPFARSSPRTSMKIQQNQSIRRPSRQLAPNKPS

[5] = molecular target: T5, panel of 370 protein kinases (Homo sapiens, UniProt Q96KB5); conditions: 2 h, kinase PBK/TOPK; read-out: % Enzyme Activity (relative to DMSO controls)
T5 construct: purchased Reaction Biology Corporation (assay service)

[6] = molecular target: T6, panel of 370 protein kinases (Homo sapiens, UniProt P09619); conditions: 2 h, kinase PDGFRb; read-out: % Enzyme Activity (relative to DMSO controls)
T6 construct: purchased Reaction Biology Corporation (assay service)

[7] = molecular target: T7, panel of 370 protein kinases (Homo sapiens, UniProt P35916); conditions: 2 h, kinase FLT4/VEGFR3; read-out: % Enzyme Activity (relative to DMSO controls)
T7 construct: purchased Reaction Biology Corporation (assay service)

[8] = molecular target: T8, panel of 370 protein kinases (Homo sapiens, UniProt P48730); conditions: 2 h, kinase CK1d; read-out: % Enzyme Activity (relative to DMSO controls)
T8 construct: purchased Reaction Biology Corporation (assay service)

[9] = molecular target: T9, panel of 370 protein kinases (Homo sapiens, UniProt P51812); conditions: 2 h, kinase RSK2; read-out: % Enzyme Activity (relative to DMSO controls)
T9 construct: purchased Reaction Biology Corporation (assay service)

[10] = molecular target: T10, panel of 370 protein kinases (Homo sapiens, UniProt Q9UBE8); conditions: 2 h, kinase NLK; read-out: % Enzyme Activity (relative to DMSO controls)
T10 construct: purchased Reaction Biology Corporation (assay service)

[11] = molecular target: T11, panel of 370 protein kinases (Homo sapiens, UniProt O95835); conditions: 2 h, kinase LATS1; read-out: % Enzyme Activity (relative to DMSO controls)
T11 construct: purchased Reaction Biology Corporation (assay service)

[12] = molecular target: T12, panel of 370 protein kinases (Homo sapiens, UniProt P12931); conditions: 2 h, kinase c-Src; read-out: % Enzyme Activity (relative to DMSO controls)
T12 construct: purchased Reaction Biology Corporation (assay service)

[13] = molecular target: T13, panel of 370 protein kinases (Homo sapiens, UniProt P37023); conditions: 2 h, kinase ALK1/ACVRL1; read-out: % Enzyme Activity (relative to DMSO controls)
T13 construct: purchased Reaction Biology Corporation (assay service)
T13 sequence (P37023 22-503): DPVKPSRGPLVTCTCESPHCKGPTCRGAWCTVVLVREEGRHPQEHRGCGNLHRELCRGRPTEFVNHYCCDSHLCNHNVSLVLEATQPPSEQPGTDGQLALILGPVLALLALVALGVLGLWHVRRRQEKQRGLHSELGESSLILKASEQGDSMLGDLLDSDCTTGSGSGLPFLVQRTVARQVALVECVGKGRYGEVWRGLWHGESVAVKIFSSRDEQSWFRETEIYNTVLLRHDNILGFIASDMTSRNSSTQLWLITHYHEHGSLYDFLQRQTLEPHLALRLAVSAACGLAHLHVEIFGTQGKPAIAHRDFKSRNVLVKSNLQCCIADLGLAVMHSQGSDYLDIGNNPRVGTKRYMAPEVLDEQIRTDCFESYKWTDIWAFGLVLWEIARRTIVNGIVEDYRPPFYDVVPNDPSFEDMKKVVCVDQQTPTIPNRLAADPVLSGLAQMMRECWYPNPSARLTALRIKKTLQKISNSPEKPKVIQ

[14] = molecular target: T14, panel of 370 protein kinases (Homo sapiens, UniProt P54756); conditions: kinase EPHA5
T14 construct: purchased Reaction Biology Corporation (assay service)
T14 sequence (P54756 25-1037): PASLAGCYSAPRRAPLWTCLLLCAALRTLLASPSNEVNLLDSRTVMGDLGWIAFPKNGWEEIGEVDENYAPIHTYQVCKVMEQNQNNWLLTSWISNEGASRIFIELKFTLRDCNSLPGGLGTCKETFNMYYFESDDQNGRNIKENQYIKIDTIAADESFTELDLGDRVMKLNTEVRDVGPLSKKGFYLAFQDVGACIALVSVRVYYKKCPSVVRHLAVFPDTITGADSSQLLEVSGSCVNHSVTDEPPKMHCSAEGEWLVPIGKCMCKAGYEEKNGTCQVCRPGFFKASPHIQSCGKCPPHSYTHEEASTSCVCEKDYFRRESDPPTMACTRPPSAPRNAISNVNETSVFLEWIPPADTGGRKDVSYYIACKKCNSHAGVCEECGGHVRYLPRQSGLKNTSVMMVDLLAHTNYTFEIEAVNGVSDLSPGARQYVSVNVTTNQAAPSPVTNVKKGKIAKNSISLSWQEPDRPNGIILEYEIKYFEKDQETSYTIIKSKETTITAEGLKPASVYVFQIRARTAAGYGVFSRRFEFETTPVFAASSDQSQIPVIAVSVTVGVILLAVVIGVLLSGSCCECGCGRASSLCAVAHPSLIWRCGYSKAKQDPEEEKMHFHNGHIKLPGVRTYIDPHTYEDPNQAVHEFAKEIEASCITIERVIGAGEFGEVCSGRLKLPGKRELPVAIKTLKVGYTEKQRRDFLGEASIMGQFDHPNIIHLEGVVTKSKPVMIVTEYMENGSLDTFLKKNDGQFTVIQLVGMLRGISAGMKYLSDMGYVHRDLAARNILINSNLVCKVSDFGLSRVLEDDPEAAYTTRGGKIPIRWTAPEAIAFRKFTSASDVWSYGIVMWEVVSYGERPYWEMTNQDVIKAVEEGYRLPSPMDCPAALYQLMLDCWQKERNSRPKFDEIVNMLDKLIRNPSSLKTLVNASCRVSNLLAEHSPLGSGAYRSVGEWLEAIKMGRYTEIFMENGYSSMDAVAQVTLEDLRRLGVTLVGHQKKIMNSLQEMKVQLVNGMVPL

[15] = molecular target: T15, panel of 370 protein kinases (Homo sapiens, UniProt Q9UM73); conditions: 2 h, kinase ALK; read-out: % Enzyme Activity (relative to DMSO controls)
T15 construct: purchased Reaction Biology Corporation (assay service)

[16] = molecular target: T16, panel of 370 protein kinases (Homo sapiens, UniProt P43405); conditions: kinase SYK
T16 construct: purchased Reaction Biology Corporation (assay service)

[17] = molecular target: T17, panel of 370 protein kinases (Homo sapiens, UniProt P53778); conditions: 2 h, kinase P38g; read-out: % Enzyme Activity (relative to DMSO controls)
T17 construct: purchased Reaction Biology Corporation (assay service)

[18] = molecular target: T18, panel of 370 protein kinases (Homo sapiens, UniProt Q15835); conditions: 2 h, kinase GRK1; read-out: % Enzyme Activity (relative to DMSO controls)
T18 construct: purchased Reaction Biology Corporation (assay service)

[19] = molecular target: T19, panel of 370 protein kinases (Homo sapiens, UniProt Q9Y4K4); conditions: 2 h, kinase KHS/MAP4K5; read-out: % Enzyme Activity (relative to DMSO controls)
T19 construct: purchased Reaction Biology Corporation (assay service)

[20] = molecular target: T20, panel of 370 protein kinases (Homo sapiens, UniProt Q02156); conditions: 2 h, kinase PKCepsilon; read-out: % Enzyme Activity (relative to DMSO controls)
T20 construct: purchased Reaction Biology Corporation (assay service)
T20 sequence (Q02156 whole entry): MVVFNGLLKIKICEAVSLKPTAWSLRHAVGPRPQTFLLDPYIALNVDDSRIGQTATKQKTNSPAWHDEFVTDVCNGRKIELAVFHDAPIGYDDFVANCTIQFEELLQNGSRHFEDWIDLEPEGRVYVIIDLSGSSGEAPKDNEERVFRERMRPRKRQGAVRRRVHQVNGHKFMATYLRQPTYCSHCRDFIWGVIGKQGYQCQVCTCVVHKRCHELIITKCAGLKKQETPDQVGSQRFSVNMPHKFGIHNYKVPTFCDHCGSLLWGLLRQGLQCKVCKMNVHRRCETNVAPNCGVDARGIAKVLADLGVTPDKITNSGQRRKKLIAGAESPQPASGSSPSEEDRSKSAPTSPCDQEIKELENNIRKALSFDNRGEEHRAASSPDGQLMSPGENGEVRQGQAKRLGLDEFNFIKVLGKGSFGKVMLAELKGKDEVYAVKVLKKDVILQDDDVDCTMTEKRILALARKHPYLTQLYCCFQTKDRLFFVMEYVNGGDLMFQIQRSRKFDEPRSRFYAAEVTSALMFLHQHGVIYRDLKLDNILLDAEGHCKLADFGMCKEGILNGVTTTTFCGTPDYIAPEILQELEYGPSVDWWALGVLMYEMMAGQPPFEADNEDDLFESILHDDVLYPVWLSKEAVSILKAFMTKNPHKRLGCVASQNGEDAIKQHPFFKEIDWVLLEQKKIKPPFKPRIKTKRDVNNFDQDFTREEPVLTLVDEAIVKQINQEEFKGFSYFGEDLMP

[21] = molecular target: T21, panel of 370 protein kinases (Homo sapiens, UniProt O15111); conditions: 2 h, kinase IKKa/CHUK; read-out: % Enzyme Activity (relative to DMSO controls)
T21 construct: purchased Reaction Biology Corporation (assay service)

## CCN1CCN(C(=O)c2ccc(Nc3ncc(F)c(-c4ccc5nc(N(C)C)sc5c4)n3)nc2)CC1 [YK-2-69]
[1]
  remaining activity at 1 µM: 98%
[2]
  remaining activity at 1 µM: 106%
[3]
  remaining activity at 1 µM: 85.9%
[4]
  remaining activity at 1 µM: 93.2%
[5]
  remaining activity at 1 µM: 108%
[6]
  remaining activity at 1 µM: 97.5%
[7]
  remaining activity at 1 µM: 75.2%
[8]
  remaining activity at 1 µM: 104%
[9]
  remaining activity at 1 µM: 74.5%
[10]
  remaining activity at 1 µM: 97%
[11]
  remaining activity at 1 µM: 95.2%
[12]
  remaining activity at 1 µM: 99.7%
[13]
  remaining activity at 1 µM: 106%
[14]
  % Enzyme Activity (relative to DMSO controls): 97.73% and 95.85%
[15]
  remaining activity at 1 µM: 98.8%
[16]
  % Enzyme Activity (relative to DMSO controls): 98.88% and 95.73%
[17]
  remaining activity at 1 µM: 98.1%
[18]
  remaining activity at 1 µM: 97.2%
[19]
  remaining activity at 1 µM: 101%
[20]
  remaining activity at 1 µM: 91.3%
[21]
  remaining activity at 1 µM: 77.1%
